Laboratory results reported in PMC11635053, “Development of a homotrimeric PSMA radioligand based on the NOTI chelating platform” (EJNMMI Radiopharmacy and Chemistry, 2024).
Read-outs that look alike come from different tables or passages of the source. Values belong to the compound of their own block, whether it stands above or below them.

Assays:
PSMA = target: T1, PSMA (Homo sapiens, UniProt Q04609); experiment: Competitive binding assay in LNCaP cells with [177Lu]Lu-PSMA-617 as radioligand; settings: for IC50: LNCaP cells, radioligand [177Lu]Lu-PSMA-617, 2 h at r.t., read-out: IC50 (half maximum competitive inhibitory concentration)
T1 construct: host or cells: LNCaP
T1 sequence (Q04609 whole entry): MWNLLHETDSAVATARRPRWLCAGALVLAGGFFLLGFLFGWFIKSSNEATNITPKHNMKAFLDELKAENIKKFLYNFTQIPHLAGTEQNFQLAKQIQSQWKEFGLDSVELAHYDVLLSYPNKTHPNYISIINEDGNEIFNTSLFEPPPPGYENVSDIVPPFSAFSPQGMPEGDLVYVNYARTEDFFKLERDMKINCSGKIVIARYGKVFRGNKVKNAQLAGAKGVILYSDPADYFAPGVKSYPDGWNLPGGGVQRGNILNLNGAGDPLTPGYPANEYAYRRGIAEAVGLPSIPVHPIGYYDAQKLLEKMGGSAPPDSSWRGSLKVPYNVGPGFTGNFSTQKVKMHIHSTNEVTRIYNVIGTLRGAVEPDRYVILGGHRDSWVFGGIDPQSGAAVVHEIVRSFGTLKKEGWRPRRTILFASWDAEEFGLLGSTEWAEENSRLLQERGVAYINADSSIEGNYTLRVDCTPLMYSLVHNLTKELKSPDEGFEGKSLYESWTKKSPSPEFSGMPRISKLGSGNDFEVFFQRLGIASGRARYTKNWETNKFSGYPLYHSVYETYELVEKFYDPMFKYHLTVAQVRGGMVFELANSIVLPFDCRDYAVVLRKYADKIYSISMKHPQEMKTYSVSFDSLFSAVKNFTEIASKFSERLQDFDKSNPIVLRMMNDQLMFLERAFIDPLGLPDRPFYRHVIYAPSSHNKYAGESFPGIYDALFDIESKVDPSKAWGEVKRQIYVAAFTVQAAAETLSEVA
Method: In order to establish a structure–activity relationship, the binding affinity of the metal-free and ^natGa-complexes of the conjugates 7, 8, and 9 were determined in the PSMA-positive human prostate cancer cell line LNCaP by a competitive binding assay as previously reported using [^177Lu]Lu-PSMA-617 as the radioligand (Stemler et al. [2021]). The conjugate Glu-CO-Lys-Ahx-HBED-CC (PSMA-11) was included as the control.
The competitive binding assay was carried out using a MultiScreen®HTS Vacuum Manifold system (Merck, Germany) with 96-well filter plates. Serial dilutions of the metal-free conjugates and corresponding ^natGa complexes were prepared to obtain 7 final concentrations ranging from 0 to 1000 nM for each compound. PSMA-11 was also tested as control. Experiments were performed twice in triplicate for each compound. Freshly prepared ^177Lu-labeled PSMA-617 was used as the radioligand. A volume of 1 μL of [^177Lu]Lu-PSMA-617 stock solution (2.83 μM) was added into each tube of the dilution series (radioligand concentration 3.14 nM). For the experiment, 10^5 LNCaP cells were seeded into each well. The final volume of each well was 150 μL (100 μL cells in medium + 50 μL inhibitor in PBS). The experiment was incubated for 2 h at r.t. in a plate shaker. Then, the supernatants were removed by vacuum. Wells were furthermore washed out with ice-cold PBS (3 × 200 μL, pH 7.4). The filters were punched into tubes for the subsequent quantification of the activity in a Gamma-counter. A nonlinear regression algorithm was applied by the software GraphPad Prism to determine the specific inhibitory concentrations of 50% for the tested radiotracers.

[1] = test system: PSMA-positive LNCaP cells; experiment: Cell uptake / internalization of 68Ga-labeled conjugates in LNCaP cells; format: cell-based, human; settings: 1 h incubation; for Cell uptake: in words
Method: Next, the cellular uptake of the ^68Ga-labeled conjugates 7, 8, and 9 as well as [^68Ga]Ga-PSMA-11 was determined in PSMA-positive LNCaP cells.
LNCaP cells were seeded (10^6 cells well^−1) in poly-L-lysine coated 6-well plates 24 h before the experiment. Experiments were performed twice in triplicate for each compound. The radiolabeling solutions of [^68Ga]Ga-7, [^68Ga]Ga-8, [^68Ga]Ga-9, and [^68Ga]Ga-PSMA-11 were first diluted with PBS (pH 7.4) to a concentration of […]. 100 µL of this dilution were added to 3900 µL PBS (pH 7.4) to obtain final stock solutions of each radiolabeled compound (0.025 nmol mL^−1).
On the day of the experiment, the medium was replaced by fresh preheated medium (1.4 mL w/o blocking, 1.3 mL with blocking) and the cells incubated for 1 h at 37 °C. Next, the blocking solution was added (100 μL, 2500 pmol) to the corresponding wells. Finally, the corresponding radiolabeled conjugate (100 μL, 2.5 pmol) was added to a final assay volume of 1.5 mL well^−1. After 1 h incubation time, the supernatants were removed and the cells were washed carefully with ice-cold PBS buffer (2 × 1 mL, pH 7.4) followed by a subsequent glycine–HCl washing step (50 mM, pH 2.8, 2 × 1 mL well^−1). Cells were incubated with the glycine–HCl solution for 4 min at r.t. Next, corresponding fractions were transferred into counting tubes. Subsequently, the cells were lysed by adding NaOH (2 × 1 mL well^−1, 0.1 M) and the lysed fractions were also transferred into counting tubes. As standards, 100 µL of each radiolabeled conjugate stock solution (0.025 nmol mL^−1, 2.5 pmol) were pipetted into counting tubes containing 2 mL PBS buffer. The activity of the standards, the surface bound fractions and the internalized fractions were measured in a Gamma counter. Means were calculated and subtracted by the background. The percentages of unspecific and specific cell-surface bound and internalized activity were calculated from the standards.

[2] = test system: patient with metastatic prostate cancer; experiment: Clinical PET/CT imaging; settings: patient, 1 h p.i.
Method: PET/CT was performed approximately 1, 2, and 3 h after intravenous injection of 107 MBq of [^68Ga]Ga-9 and 1 h after injection of 113 MBq [^68Ga]Ga-PSMA-11 in a patient with metastatic prostate cancer. Whole body imaging extending from vertex to mid-femur was performed in 3D-ToF mode on a Biograph mCT 40 scanner (Siemens Medical Solutions, Knoxville, TN, USA) with an extended field of view of 21.4 cm. PET acquisition time was 3 min bed position^−1. Low-dose CT acquisition was performed for attenuation correction and anatomical localization using an X-ray tube voltage of 120 kV and a modulation of the tube current (maximal tube current: 30 mA; CARE Dose 4D software Siemens Healthineers, Erlangen, Germany) followed by reconstruction with a soft tissue reconstruction kernel (Bf37) to a slice thickness of 5 mm (increment 2–4 mm). PET emission data were additionally corrected for decay, randoms and scatter and reconstructed applying an iterative 3D ordered subset expectation maximization algorithm (3 iterations; 21 subsets) withGaussian filtering to transaxial resolution of 5 mm at full width at half maximum. The matrix size was 200 × 200 mm and the reconstructed pixel size was 5.0 mm.

[3] = test system: LNCaP xenograft bearing mice; settings: 1 h p.i., cited from earlier work
[4] = format: in vitro ADME; settings: 2 h
Method: 100 μL of the radiolabeling solution of each ^68Ga-labeled tracer were added to preheated (37 °C) 1000 μL human serum (male, AB, Sigma Aldrich, USA) in triplicates and incubated at 37 °C. At 1 and 2 h, 100 µL aliquots were taken, mixed with 100 µL ice-cold acetonitrile, and centrifuged at 4 G for 5 min at 4 °C. The corresponding filtrates were kept on ice until HPLC analysis. The supernatants were then analyzed by radio-RP-HPLC and fractions of intact compounds were calculated from the HPLC chromatograms. (gradient 4,Gamma-ray detector: 100–900 keV, injection volume: 20 μl). tR ([^68Ga]Ga-7) = 12.1 min, tR ([^68Ga]Ga-8) = 14.4 min, tR ([^68Ga]Ga-9) = 25.2 min.

human serum proteins = experiment: in vitro; format: in vitro ADME; settings: male; for Protein binding: 1 h; for fraction unbound at 1 h: Protein binding
Method: To determine the protein bound fraction of each trimeric radiotracer, 100 μL of the radiolabeling solution of the corresponding ^68Ga-labeled conjugate were added to preheated (37 °C) 1000 μL human serum (male, AB, Sigma Aldrich, USA) in triplicates. Samples were incubated for 1 h at 37 °C. After cooling to r.t., the samples were centrifuged utilizing molecular cutoff (30 kDa) centrifuge tubes at 4 G for 5 min at 4 °C. The filters were additionally rinsed with PBS buffer (2 × 100 μL). The background subtracted activity in the filters and the filtrates were determined in a Gamma counter and the percentage of protein bound fractions were calculated.

patients = settings: cited from earlier work; for Injected activity excreted: patients, ref Kurth et al. [2018]
[5] = 2.5 pmol per 10^6 cells, 68Ga-labeled
[6] = lesions listed as 1 × prostate, 2 × lymph node metastasis

Compound: O=C(O)CCc1ccc(O)c(CN(CCN(CC(=O)O)Cc2cc(CCC(=O)NCCCCCC(=O)NCCCC[C@H](NC(=O)N[C@@H](CCC(=O)O)C(=O)O)C(=O)O)ccc2O)CC(=O)O)c1 [PSMA-11, Glu-CO-Lys-Ahx-HBED-CC, reference compound]
IC50 (PSMA): 18.5 nM

Compound: O=C(O)CC[C@H](NC(=O)N[C@@H](CCCCNC(=O)CCCCCNC(=O)CCCCn1ccnc1CN1CCN(Cc2nccn2CCCCC(=O)NCCCCCC(=O)NCCCC[C@H](NC(=O)N[C@@H](CCC(=O)O)C(=O)O)C(=O)O)CCN(Cc2nccn2CCCCC(=O)NCCCCCC(=O)NCCCC[C@H](NC(=O)N[C@@H](CCC(=O)O)C(=O)O)C(=O)O)CC1)C(=O)O)C(=O)O [^nat/68Ga-8, metal not drawn]
Metabolic stability in human serum [4]: no significant degradation | Protein binding (human serum proteins): 68.2 ± 1.5% | fraction unbound at 1 h (human serum proteins): ~0.35 | IC50 (PSMA): 90 nM | Cell internalization [1, 5]: 0.08 ± 0.02% | Cell uptake [1]: negligible

Compound: [^177Lu]Lu-PSMA-617
Patients that may not respond to therapy (patients; PSMA targeted radioligand therapy, ref Kratochwil et al. [2016]): more than 30% | Injected activity excreted (patients; by 12 h): ~70% | Injected activity excreted (patients; within 4 h of administration): 50% | Kidney uptake ([3]; ref Benešová et al. ([2015])): 137.2 ± 77.8 % IA g^−1 | Liver uptake ([3]; ref Benešová et al. ([2015])): 0.22 ± 0.08 % IA g^−1 | Tumor uptake ([3]; ref Benešová et al. ([2015])): 11.20 ± 4.17 % IA g^−1 | Tumor-to-kidney ratio ([3]; ref Benešová et al. ([2015])): 0.08 | Tumor-to-liver ratio ([3]; ref Benešová et al. ([2015])): 50.91

Now from value to compound, other results behind:

IC50 (PSMA): 264 nM
Compound: O=C(O)CC[C@H](NC(=O)N[C@@H](CCCCNC(=O)CCCCn1ccnc1CN1CCN(Cc2nccn2CCCCC(=O)NCCCC[C@H](NC(=O)N[C@@H](CCC(=O)O)C(=O)O)C(=O)O)CCN(Cc2nccn2CCCCC(=O)NCCCC[C@H](NC(=O)N[C@@H](CCC(=O)O)C(=O)O)C(=O)O)CC1)C(=O)O)C(=O)O [Compound 7, (2S,2'S,2''S)−2,2',2''-(((((1S,1'S,1''S)-((5,5',5''-(((1,4,7-triazonane-1,4,7-triyl)tris(methylene))tris(1H-imidazole-2,1-diyl))tris(pentanoyl))tris(azanediyl))tris(1-carboxypentane-5,1-diyl))tris(azanediyl))tris(carbonyl))tris(azanediyl))triglutaric acid]

IC50 (PSMA): 65 nM | Factor by which affinity is lower compared to PSMA-11 (PSMA; LNCaP competitive binding, metal-free conjugate): ~ 3
Compound: O=C(O)CC[C@H](NC(=O)N[C@@H](CCCCNC(=O)CCCCCNC(=O)CCCCn1ccnc1CN1CCN(Cc2nccn2CCCCC(=O)NCCCCCC(=O)NCCCC[C@H](NC(=O)N[C@@H](CCC(=O)O)C(=O)O)C(=O)O)CCN(Cc2nccn2CCCCC(=O)NCCCCCC(=O)NCCCC[C@H](NC(=O)N[C@@H](CCC(=O)O)C(=O)O)C(=O)O)CC1)C(=O)O)C(=O)O [Compound 8, (3S,3'S,3''S,7S,7'S,7''S)−24,24',24''-(((1,4,7-triazonane-1,4,7-triyl)tris(methylene))tris(1H-imidazole-2,1-diyl))tris(5,13,20-trioxo-4,6,12,19-tetraazatetracosane-1,3,7-tricarboxylic acid)]

IC50 (PSMA): 5.9 nM
Compound: O=C(O)CC[C@H](NC(=O)N[C@@H](CCCCNC(=O)[C@H](Cc1ccc2ccccc2c1)NC(=O)[C@H]1CC[C@H](CNC(=O)CCCCn2ccnc2CN2CCN(Cc3nccn3CCCCC(=O)NC[C@H]3CC[C@H](C(=O)N[C@@H](Cc4ccc5ccccc5c4)C(=O)NCCCC[C@H](NC(=O)N[C@@H](CCC(=O)O)C(=O)O)C(=O)O)CC3)CCN(Cc3nccn3CCCCC(=O)NC[C@H]3CC[C@H](C(=O)N[C@@H](Cc4ccc5ccccc5c4)C(=O)NCCCC[C@H](NC(=O)N[C@@H](CCC(=O)O)C(=O)O)C(=O)O)CC3)CC2)CC1)C(=O)O)C(=O)O [Compound 9]
Cell internalization [1, 5]: 17.8 ± 2.5%

SUVpeak in the parotid gland [2]: 37.0 | SUVpeak in the submandibular gland [2]: 31.6 | SUVpeak kidneys [2]: 126.3 | SUVpeak liver [2]: 8.5 | SUVpeak, first target lesion [2, 6]: 35.3 | SUVpeak, second target lesion [2, 6]: 16.3 | SUVpeak, third target lesion [2, 6]: 20.6
Compound: O=C([O-])CN(CCN(CC(=O)[O-])Cc1cc(CCC(=O)NCCCCCC(=O)NCCCC[C@H](NC(=O)N[C@@H](CCC(=O)O)C(=O)O)C(=O)O)ccc1[O-])Cc1cc(CCC(=O)O)ccc1[O-].[68Ga+3].[OH3+] [[^68Ga]Ga-PSMA-11, reference compound]
Kidney uptake ([3]; ref Benešová et al. ([2015])): 187.4 ± 25.3 % IA g^−1 | Tumor uptake ([3]; ref Benešová et al. ([2015])): 10.58 ± 4.5 % IA g^−1 | Tumor-to-kidney ratio ([3]; ref Benešová et al. ([2015])): 0.06 | Kidney uptake ([3]; ref Eder et al. ([2012])): 139.4 ± 21.4 % IA g^−1 | Liver uptake ([3]; ref Eder et al. ([2012])): 0.87 ± 0.05 % IA g^−1 | Tumor uptake ([3]; ref Eder et al. ([2012])): 7.70 ± 1.45 % IA g^−1 | Tumor-to-kidney ratio ([3]; ref Eder et al. ([2012])): 0.06 | Tumor-to-liver ratio ([3]; ref Eder et al. ([2012])): 8.85 | Cell internalization [1, 5]: 5.2 ± 0.2% | Cell-surface bound fraction [1, 5]: 4.5 ± 0.2%

IC50 (PSMA): 450 nM
Compound: O=C(O)CC[C@H](NC(=O)N[C@@H](CCCCNC(=O)CCCCn1ccnc1CN1CCN(Cc2nccn2CCCCC(=O)NCCCC[C@H](NC(=O)N[C@@H](CCC(=O)O)C(=O)O)C(=O)O)CCN(Cc2nccn2CCCCC(=O)NCCCC[C@H](NC(=O)N[C@@H](CCC(=O)O)C(=O)O)C(=O)O)CC1)C(=O)O)C(=O)O [^nat/68Ga-7, metal not drawn]
Metabolic stability in human serum [4]: no significant degradation | Protein binding (human serum proteins): 63.8 ± 4.0% | fraction unbound at 1 h (human serum proteins): ~0.36 | Cell uptake [1]: negligible
